These results are taken from ChEMBL document CHEMBL4477229, “Design and Characterization of Superpotent Bivalent Ligands Targeting Oxytocin Receptor Dimers via a Channel-Like Structure” (J Med Chem, 2016).

The test system of one experiment is Mus musculus. Briefly: Effect on social behavior in OXTR+/- DBA/2J mouse assessed as increase in time spent exploring stranger mouse over time spent exploring empty cage at 0.5 ng/mouse, icv administered as single dose measured for 10 mins by three chamber method. It counts as functional, organism-based.
The next experiment concerns Danio rerio. The experiment in a line: Effect on social behavior in zebra fish assessed as increase in time spent swimming parallel to nacre mutant fish over time spent shoaling close to wild type fish at 0.75 ng/kg, im. Type of experiment: functional, organism-based.
Experiment [1] concerns the target T1, Oxytocin receptor (Homo sapiens, UniProt P30559).
T1 sequence (P30559 whole entry): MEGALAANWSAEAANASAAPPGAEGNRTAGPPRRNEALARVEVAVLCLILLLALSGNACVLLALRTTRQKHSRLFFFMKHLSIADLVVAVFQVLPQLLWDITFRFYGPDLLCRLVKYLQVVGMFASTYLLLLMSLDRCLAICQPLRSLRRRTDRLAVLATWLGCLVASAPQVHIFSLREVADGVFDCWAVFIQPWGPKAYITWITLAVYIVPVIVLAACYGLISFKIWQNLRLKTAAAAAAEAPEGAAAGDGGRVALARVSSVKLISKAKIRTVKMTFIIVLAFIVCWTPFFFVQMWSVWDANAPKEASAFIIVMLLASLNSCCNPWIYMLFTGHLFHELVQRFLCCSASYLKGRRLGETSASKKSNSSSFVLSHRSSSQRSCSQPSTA
The experiment in a line: (§1) Agonist activity at human oxytocin receptor expressed in HEK293 cells coexpressing Rluc8-tagged Galphaq, N-terminal GFP-tagged Ggamma2 and Gbeta1 protein incubated for 2 mins by Gq protein activation based BRET assay. Type of experiment: cell-based.

Experiment [2] deals with T2, Oxytocin receptor (Homo sapiens) (UniProt P30559).
T2 sequence (whole entry): T1 sequence (P30559 whole entry)
The description is as §1. It counts as cell-based. Set-up: unit not given here.

For experiment [3], the target named is T3, Oxytocin receptor (Homo sapiens, UniProt P30559, C47A). The experiment in a line: (§2) Agonist activity at human oxytocin receptor C47A mutant expressed in HEK293 cells coexpressing Rluc8-tagged Galphaq, N-terminal GFP-tagged Ggamma2 and Gbeta1 protein incubated for 2 mins by Gq protein activation based BRET assay. It counts as cell-based.
T3 sequence (P30559 whole entry C47A): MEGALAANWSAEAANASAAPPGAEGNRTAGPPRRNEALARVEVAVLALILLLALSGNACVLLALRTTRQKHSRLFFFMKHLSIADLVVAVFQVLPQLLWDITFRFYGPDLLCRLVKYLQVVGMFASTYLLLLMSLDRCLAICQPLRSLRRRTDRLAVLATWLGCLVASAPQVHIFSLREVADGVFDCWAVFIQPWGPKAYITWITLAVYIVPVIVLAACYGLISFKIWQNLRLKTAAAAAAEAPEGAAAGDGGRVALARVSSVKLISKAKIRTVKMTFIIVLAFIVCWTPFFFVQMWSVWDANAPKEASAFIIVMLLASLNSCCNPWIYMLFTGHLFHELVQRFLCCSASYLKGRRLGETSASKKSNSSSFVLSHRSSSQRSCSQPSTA
Experiment [4] deals with T4, Oxytocin receptor (Homo sapiens), P30559 [C47A].
T4 sequence (whole entry): T1 sequence (P30559 whole entry) with C47A
Described as §2. It counts as cell-based. Set-up: unit not given here.

Experiment [5] has as its system T5, Oxytocin receptor (Homo sapiens), P30559 [V43A,C47A].
T5 sequence (whole entry): T1 sequence (P30559 whole entry) with V43A, C47A
Briefly: (§3) Agonist activity at human oxytocin receptor V43A/C47A double mutant expressed in HEK293 cells coexpressing Rluc8-tagged Galphaq, N-terminal GFP-tagged Ggamma2 and Gbeta1 protein incubated for 2 mins by Gq protein activation based BRET assay. Type of experiment: cell-based. Details: unit not given here. Background: Bioluminescence resonance energy transfer reports proximity on the nanometre scale.

In experiment [6] the target is Oxytocin receptor (Homo sapiens, UniProt P30559, C47A/V43A). Described as §3. Type of experiment: cell-based.
Oxytocin receptor (Homo sapiens, UniProt P30559, C47A/V43A), sequence (P30559 whole entry V43A/C47A): as the sequence (P30559 whole entry C47A) above, with V43A counted along it
In experiment [7] the target is T1, Oxytocin receptor. The experiment in a line: (§4) Agonist activity at human oxytocin receptor expressed in HEK293 cells coexpressing Rluc8-tagged Galphaq, N-terminal GFP-tagged Ggamma2 and Gbeta1 protein incubated for 2 mins in presence of TMH5-TAT peptide by Gq protein activation based BRET assay. Type of experiment: cell-based.
Experiment [8] concerns the target T2, Oxytocin receptor (Homo sapiens). Described as §4. It counts as cell-based. Set-up: unit not given here.
In experiment [9] the target is T1, Oxytocin receptor. Briefly: (§5) Agonist activity at human oxytocin receptor expressed in HEK293 cells coexpressing Rluc8-tagged Galphaq, N-terminal GFP-tagged Ggamma2 and Gbeta1 protein incubated for 2 mins in presence of TMH1-TAT peptide by Gq protein activation based BRET assay. It counts as cell-based.
Experiment [10] addresses T2, Oxytocin receptor (Homo sapiens). The description is as §5. It counts as cell-based. Set-up: unit not given here.
For experiment [11], the target named is T3, Oxytocin receptor. The experiment in a line: Agonist activity at human oxytocin receptor C47A mutant high affinity site expressed in HEK293 cells coexpressing Rluc8-tagged Galphaq, N-terminal GFP-tagged Ggamma2 and Gbeta1 protein incubated for 2 mins by Gq protein activation based BRET assay. Type of experiment: cell-based.
Experiment [12] concerns the target T3, Oxytocin receptor. The experiment in a line: Agonist activity at human oxytocin receptor C47A mutant low affinity site expressed in HEK293 cells coexpressing Rluc8-tagged Galphaq, N-terminal GFP-tagged Ggamma2 and Gbeta1 protein incubated for 2 mins by Gq protein activation based BRET assay. It counts as cell-based.
The target in experiment [13] is T1, Oxytocin receptor. Briefly: Agonist activity at human oxytocin receptor high affinity site expressed in HEK293 cells coexpressing Rluc8-tagged Galphaq, N-terminal GFP-tagged Ggamma2 and Gbeta1 protein incubated for 2 mins by Gq protein activation based BRET assay. Type of experiment: cell-based.
Experiment [14] concerns the target T1, Oxytocin receptor. The experiment in a line: Agonist activity at human oxytocin receptor high affinity site expressed in HEK293 cells coexpressing Rluc8-tagged Galphaq, N-terminal GFP-tagged Ggamma2 and Gbeta1 protein incubated for 2 mins in presence of TMH5-TAT peptide by Gq protein activation based BRET assay. Type of experiment: cell-based.
Experiment [15] addresses T1, Oxytocin receptor. The experiment in a line: Agonist activity at human oxytocin receptor low affinity site expressed in HEK293 cells coexpressing Rluc8-tagged Galphaq, N-terminal GFP-tagged Ggamma2 and Gbeta1 protein incubated for 2 mins in presence of TMH5-TAT peptide by Gq protein activation based BRET assay. It counts as cell-based.
The target in experiment [16] is T1, Oxytocin receptor. The experiment in a line: Agonist activity at human oxytocin receptor low affinity site expressed in HEK293 cells coexpressing Rluc8-tagged Galphaq, N-terminal GFP-tagged Ggamma2 and Gbeta1 protein incubated for 2 mins by Gq protein activation based BRET assay. Type of experiment: cell-based.
The target in experiment [17] is T2, Oxytocin receptor (Homo sapiens). The experiment in a line: Ratio of EC50 for human oxytocin receptor high affinity site expressed in HEK293 cells coexpressing Rluc8-tagged Galphaq, N-terminal GFP-tagged Ggamma2 and Gbeta1 protein to Ki for human oxytocin receptor high affinity site expressed in COS7 cell membrane. It counts as cell-based.
The target is the same in experiment [18]. Briefly: Ratio of EC50 for human oxytocin receptor low affinity site expressed in HEK293 cells coexpressing Rluc8-tagged Galphaq, N-terminal GFP-tagged Ggamma2 and Gbeta1 protein to Ki for human oxytocin receptor low affinity site expressed in COS7 cell membrane. Type of experiment: cell-based.
For experiment [19] the target is unchanged. Briefly: Displacement of [125I]-OVTA from human oxytocin receptor expressed in COS7 cell membrane. It counts as cell membranes. In general terms: In a radioligand displacement assay an active substance lowers the binding of a labelled ligand.

Numbering of substitutions follows the chain as printed. The source made the active and inactive calls. The rule behind the calls is not given here. Numbered stars: 1 amine (or outer) side, 2 acyl side, 3 side chain; on linkers, the order of the positions; unused ones are H or OH. Bridge positions count the residues as written; N and C are the ends. Square brackets hold non-standard residues; d marks the D form. Peptide text beside a SMILES is read from it. I, II: the chains in the order shown. * marks the point of attachment. Sebacoyl = O=C(CCCCCCCCC(=O)[*:2])[*:1]; C12 diacid = O=C(O)CCCCCCCCCCC(=O)*; Adipoyl = O=C(CCCCC(=O)[*:2])[*:1]; Octanoyl = CCCCCCCC(=O)*; Mpa = O=C(O)CCS

With `CC[C@H](C)[C@@H]1NC(=O)[C@H](Cc2ccc(O)cc2)NC(=O)[C@@H](N)CSSC[C@@H](C(=O)N2CCC[C@H]2C(=O)N[C@@H](CC(C)C)C(=O)NCC(N)=O)NC(=O)[C@H](CC(N)=O)NC(=O)[C@H](CCC(N)=O)NC1=O`, the outcome in the experiment with Mus musculus was Active.

As to `CC[C@H](C)[C@@H]1NC(=O)[C@H](Cc2ccc(O)cc2)NC(=O)[C@@H](N)CSSC[C@@H](C(=O)N2CCC[C@H]2C(=O)N[C@H](C(=O)NCC(N)=O)[C@@H](C)CC)NC(=O)[C@H](CC(N)=O)NC(=O)[C@H](CO)NC1=O` (H-CYISNCPIG-NH2; disulfide 1-6), in the experiment on Danio rerio, the result was Active.

`CC[C@H](C)[C@@H]1NC(=O)[C@H](Cc2ccc(O)cc2)NC(=O)CCSSC[C@@H](C(=O)N2CCC[C@H]2C(=O)N[C@@H](CCCCNC(=O)CCCCC(=O)NCCCC[C@H](NC(=O)[C@@H]2CCCN2C(=O)[C@@H]2CSSCCC(=O)N[C@@H](Cc3ccc(O)cc3)C(=O)N[C@@H]([C@@H](C)CC)C(=O)N[C@@H](CCC(N)=O)C(=O)N[C@@H](CC(N)=O)C(=O)N2)C(=O)NCC(N)=O)C(=O)NCC(N)=O)NC(=O)[C@H](CC(N)=O)NC(=O)[C@H](CCC(N)=O)NC1=O` (I: [Mpa]YIQNCPKG-NH2 / II: [Mpa]YIQNCPKG-NH2; disulfide I:1-I:6, II:1-II:6; linker I:8-II:8 via Adipoyl): the EC50 – broadly, the midpoint of the concentration-response curve – at Oxytocin receptor [1] came to 11.8 nM; at Oxytocin receptor [3], 21.9 nM; on Oxytocin receptor [6], 25.6 nM. The figures for the Emax in experiment [2], in experiment [4] and in experiment [5] were -0.13, -0.13 and -0.14, respectively.

Take `CC[C@H](C)[C@@H]1NC(=O)[C@H](Cc2ccc(O)cc2)NC(=O)CCSSC[C@@H](C(=O)N2CCC[C@H]2C(=O)N[C@@H](CCCCNC(=O)CCCCCCCCCCC(=O)NCCCC[C@H](NC(=O)[C@@H]2CCCN2C(=O)[C@@H]2CSSCCC(=O)N[C@@H](Cc3ccc(O)cc3)C(=O)N[C@@H]([C@@H](C)CC)C(=O)N[C@@H](CCC(N)=O)C(=O)N[C@@H](CC(N)=O)C(=O)N2)C(=O)NCC(N)=O)C(=O)NCC(N)=O)NC(=O)[C@H](CC(N)=O)NC(=O)[C@H](CCC(N)=O)NC1=O` (I: [Mpa]YIQNCPKG-NH2 / II: [Mpa]YIQNCPKG-NH2; disulfide I:1-I:6, II:1-II:6; linker I:8-II:8 via C12 diacid): the EC50 on Oxytocin receptor [7] came out at 14 nM; on Oxytocin receptor [9] it was 37.9 nM; at Oxytocin receptor [1], 20.1 nM; on Oxytocin receptor [11], 0.0012 nM; at Oxytocin receptor [12], 135 nM; on Oxytocin receptor [6], 182 nM. Further, the Emax is -0.15 in experiment [8]; -0.16 in experiment [10]; -0.11 in experiment [2]; -0.13 in experiment [4]; -0.08 in experiment [5].

With `CC[C@H](C)[C@@H]1NC(=O)[C@H](Cc2ccc(O)cc2)NC(=O)CCSSC[C@@H](C(=O)N2CCC[C@H]2C(=O)N[C@@H](CCCCNC(=O)CCCCCCCCC(=O)NCCCC[C@H](NC(=O)[C@@H]2CCCN2C(=O)[C@@H]2CSSCCC(=O)N[C@@H](Cc3ccc(O)cc3)C(=O)N[C@@H]([C@@H](C)CC)C(=O)N[C@@H](CCC(N)=O)C(=O)N[C@@H](CC(N)=O)C(=O)N2)C(=O)NCC(N)=O)C(=O)NCC(N)=O)NC(=O)[C@H](CC(N)=O)NC(=O)[C@H](CCC(N)=O)NC1=O` (I: [Mpa]YIQNCPKG-NH2 / II: [Mpa]YIQNCPKG-NH2; disulfide I:1-I:6, II:1-II:6; linker I:8-II:8 via Sebacoyl), the EC50 amounted to 0.0028 nM at Oxytocin receptor [13]; 0.00257 nM at Oxytocin receptor [14]; 17.3 nM at Oxytocin receptor [9]; 11 nM at Oxytocin receptor [15]; 21.7 nM at Oxytocin receptor [3]; 13 nM on Oxytocin receptor [16]. Also, the EC50 at Oxytocin receptor [6] was determined as 40.5 nM. Further, the Emax in experiment [8] was -0.17; in experiment [10], -0.15; in [2] it was -0.1; in [4], -0.14; in experiment [5], -0.14.

The molecule `CCCCCCCC(=O)NCCCC[C@H](NC(=O)[C@@H]1CCCN1C(=O)[C@@H]1CSSCCC(=O)N[C@@H](Cc2ccc(O)cc2)C(=O)N[C@@H]([C@@H](C)CC)C(=O)N[C@@H](CCC(N)=O)C(=O)N[C@@H](CC(N)=O)C(=O)N1)C(=O)NCC(N)=O` ([Mpa]YIQNCPK(Octanoyl)G-NH2; disulfide 1-6) yielded an EC50 on Oxytocin receptor [1] of 4.1 nM. Further, the Emax in experiment [2] was -0.11.

As to `CC[C@H](C)[C@@H]1NC(=O)[C@H](Cc2ccc(O)cc2)NC(=O)CCSSC[C@@H](C(=O)N2CCC[C@H]2C(=O)N[C@@H](CCCCN)C(=O)NCC(N)=O)NC(=O)[C@H](CC(N)=O)NC(=O)[C@H](CCC(N)=O)NC1=O` ([Mpa]YIQNCPKG-NH2; disulfide 1-6), the EC50 at Oxytocin receptor [13] stood at 0.265 nM; at Oxytocin receptor [7] it was 0.75 nM; on Oxytocin receptor [9], 0.92 nM; at Oxytocin receptor [1], 4 nM; at Oxytocin receptor [3], 2.8 nM; at Oxytocin receptor [16], 74.8 nM. Also, the EC50 on Oxytocin receptor [6] amounted to 33.4 nM. Also, the Emax in experiment [8] was -0.14; in [10], -0.15; in experiment [2], -0.11 to -0.1; in experiment [4] it was -0.15; in experiment [5], -0.08. In addition, the Ratio in experiment [17] and in [18] was 10 each time. Moreover, the KiH in [19] was 21 pM. In experiment [19], this molecule displayed a KiL of 3.35 nM.
